Measured values reported in patent publication US8436012B2, “Imidazopyridin-2-one derivatives” (Daiichi Sankyo Company, Limited, priority 2008, dated 2013).

How the values were obtained:
human mTOR = molecular target: T1, human mTOR (Homo sapiens, UniProt P42345); assay: mTOR Kinase Activity Inhibition Test; type: biochemical; details: His-tagged mTOR (1362C), biotinylated peptide substrate, ATP, 3 hours at room temperature, fluorescence resonance energy transfer 665 nm/620 nm; read-out: IC50 value of mTOR enzyme inhibitory activity
T1 construct: the portion corresponding to 1362-2549aa at the C terminus of human mTOR; made in house
T1 sequence (P42345 1362-2549): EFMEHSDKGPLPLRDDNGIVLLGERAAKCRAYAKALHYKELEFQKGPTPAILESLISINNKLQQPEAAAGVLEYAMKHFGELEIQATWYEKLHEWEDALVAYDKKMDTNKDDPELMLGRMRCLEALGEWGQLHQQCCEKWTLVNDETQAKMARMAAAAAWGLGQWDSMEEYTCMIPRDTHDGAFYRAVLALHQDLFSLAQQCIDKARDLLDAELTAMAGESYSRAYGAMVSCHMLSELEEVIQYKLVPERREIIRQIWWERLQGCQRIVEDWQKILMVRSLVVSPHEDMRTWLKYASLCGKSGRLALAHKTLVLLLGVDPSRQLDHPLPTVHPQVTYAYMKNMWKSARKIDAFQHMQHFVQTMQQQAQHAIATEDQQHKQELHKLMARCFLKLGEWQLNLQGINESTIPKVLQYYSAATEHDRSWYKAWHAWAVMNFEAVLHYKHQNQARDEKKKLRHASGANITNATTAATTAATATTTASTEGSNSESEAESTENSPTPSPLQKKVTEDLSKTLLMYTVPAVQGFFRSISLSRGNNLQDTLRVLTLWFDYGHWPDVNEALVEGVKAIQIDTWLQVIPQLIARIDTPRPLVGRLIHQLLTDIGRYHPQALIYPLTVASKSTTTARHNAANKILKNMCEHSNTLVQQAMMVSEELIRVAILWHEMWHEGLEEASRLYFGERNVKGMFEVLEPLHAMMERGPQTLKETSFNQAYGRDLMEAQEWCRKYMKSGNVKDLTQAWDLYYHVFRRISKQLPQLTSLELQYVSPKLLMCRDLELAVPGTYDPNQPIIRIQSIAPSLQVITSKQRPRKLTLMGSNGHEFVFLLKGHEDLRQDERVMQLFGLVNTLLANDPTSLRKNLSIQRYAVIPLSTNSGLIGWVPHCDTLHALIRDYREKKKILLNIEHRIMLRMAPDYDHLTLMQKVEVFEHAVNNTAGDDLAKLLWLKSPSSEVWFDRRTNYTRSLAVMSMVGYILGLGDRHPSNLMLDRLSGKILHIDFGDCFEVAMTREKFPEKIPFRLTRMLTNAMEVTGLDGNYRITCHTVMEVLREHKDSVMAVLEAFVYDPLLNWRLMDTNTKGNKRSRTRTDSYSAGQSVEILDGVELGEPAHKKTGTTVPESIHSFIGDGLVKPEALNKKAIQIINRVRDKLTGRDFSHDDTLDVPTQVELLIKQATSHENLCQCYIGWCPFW
Protocol: The kinase activity of mTOR was measured in the presence or absence of a test compound. A substrate peptide is phosphorylated by mTOR kinase activity. A complex of streptavidin-XL665 and anti-phosphorylated S6K (Thr389) antibody/anti-mouse IgG-cryptate binds to this phosphorylated peptide. At this moment, fluorescence resonance energy transfer takes place from antibody/anti-mouse IgG-cryptate exposed to light excitation to XL665, which results in emission of fluorescence at 665 nm. The mTOR kinase activity is detected using this principle.
(1) Sample Preparation and Enzymatic Reaction
An HEK293 cell line that constitutively expresses a His tag fused human mTOR has been established. His tag was introduced into the N terminus of the portion corresponding to 1362-2549aa at the C terminus of human mTOR. Cell lysate was prepared from this HEK293 cell line constitutively expressing His-tagged mTOR (1362C), and His-tagged mTOR (1362C) was purified using the His tag affinity according to a conventional method.
Next, an mTOR enzyme solution was prepared, which contains the aforementioned His-tagged mTOR (1362C) enzyme, 8 μg/mL of biotinylated peptide (Biotin-Ahx-[…]-amide (Sigma)), as well as 50 mM HEPES (pH 7.5), 20 mM MnCl2, 1 mg/ml BSA, an appropriate amount of protease inhibitor cocktail (Complete EDTA free, Roche), 100 ng/ml Calyculin A, 4 μg/ml Cantharidin and 10 mM DTT as other components.
The test compound was dissolved in DMSO, and serial dilutions were prepared with 20 μM ATP solution (50 mM HEPES (pH 7.5), 20 μM ATP) to achieve concentrations necessary for the assay. 5 μL of this compound solution was applied to each well of a 384 well small volume white Greiner plate.
5 μL of mTOR enzyme solution was added to the aforementioned well containing the test compound. After mixing, the mixture was incubated at room temperature for 3 hours to carry out the enzymatic reaction.
The same operation was performed with a solution of DMSO in 20 μM ATP solution as a positive control and with a solution of DMSO in 50 mM HEPES (pH 7.5) as a negative control.
(2) Detection of Enzymatic Reaction
After the enzymatic reaction, 5 μl each of an europium solution (a solution of anti-mouse IgG-cryptate (SCETI Medical Labo K.K.) and anti-phosphorylated S6K (Thr389) antibody (Cell Signaling Technology Inc.) in 50 mM HEPES (pH 7.5), 100 mM EDTA and 1.5 mg/ml BSA) and an XL665 solution (a solution of streptavidin-XL665 (SCETI Medical Labo K.K.) in 50 mM HEPES (pH 7.5), 100 mM EDTA, 0.8 M KF and 1.5 mg/ml BSA) were added in this order and then mixed. The mixture was incubated at 4° C. overnight. On the following day, the mixture was returned to room temperature and irradiated with excitation light at 337 nm. Fluorescence at 620 nm and fluorescence at 665 nm were measured with RUBYstar (BMG).
The mTOR inhibitory activity (%) was calculated using the ratio calculated from the measured values as an index of enzyme activity. Here, the ratio was calculated from the following formula (I). Ratio=10000×665 nm fluorescence value/620 nm fluorescence value (1)
The mTOR enzyme inhibitory activity (%) was calculated from the following formula (2). mTOR enzyme inhibitory activity (%)=100×[(P−S)/(P−N)] (2)
P: Ratio in well of positive control
N: Ratio in well of negative control
S: Ratio in well containing test compound
Further, an optimal curve was calculated based upon each concentration of the test compound prepared in serial dilutions and the mTOR enzyme inhibitory activity (%) at that concentration. The concentration at which 50% inhibition occurred was calculated as the IC50 value of mTOR enzyme inhibitory activity.

WM-266-4 cells = assay: Cell Proliferation Inhibitory Test; type: cell-based; details: Homo sapiens, 72 h, cultured three days with test compound, MTT, read-out: 50% cell proliferation inhibitory activity (GI50 value)
Protocol: WM-266-4 cells (ATCC, USA) were seeded in a 96-well plate and cultured overnight. Then, serial dilutions of the sample containing the test compound were prepared, added to each well and cultured another three days. Thereafter, the cell amount in each well was measured by MTT (MOSMANN, T., Rapid colorimetric assay for cellular growth and survival: application to proliferation and cytotoxicity assays. J. Immunol. Methods, 65, 55-63 (1983)). The 50% cell proliferation inhibitory activity (GI50 value) was calculated from the following formula (3). 100×[(T−T0)/(C−T0)]=50 (3)
Here, T represents values from the test compound added wells, C represents the value from the well to which the test compound was not added for three days, and To represents an initial measured value at the time of addition of the test compound.

Structure (SMILES)	IC50 (human mTOR)	GI50 (WM-266-4 cells)
CC1(Cn2c(=O)[nH]c3ncc(-c4cnc5[nH]ccc5c4)cc32)CCOCC1 [Example 25, 1-[(4-Methyltetrahydro-2H-pyran-4-yl)methyl]-6-(1H-pyrrolo[2,3-b]pyridin-5-yl)-1,3-dihydro-2H-imidazo[4,5-b]pyridin-2-one]	< 50 nM	< 3000 nM
O=c1[nH]c2ncc(-c3cnc4[nH]ccc4c3)cc2n1CC1=CCCOC1 [Example 31, 1-(5,6-Dihydro-2H-pyran-3-ylmethyl)-6-(1H-pyrrolo[2,3-b]pyridin-5-yl)-1,3-dihydro-2H-imidazo[4,5-b]pyridin-2-one]	< 50 nM	< 3000 nM
O=c1[nH]c2ncc(-c3cnc4[nH]ccc4c3)cc2n1CC1CCCOC1 (stereo not drawn) [Example 32, 6-(1H-Pyrrolo[2,3-b]pyridin-5-yl)-1-(tetrahydro-2H-pyran-3-ylmethyl)-1,3-dihydro-2H-imidazo[4,5-b]pyridin-2-one]	< 50 nM	< 3000 nM
O=c1[nH]c2ncc(-c3cnc4[nH]cc(Cl)c4c3)cc2n1CC1CCOCC1 [Example 35, 6-(3-Chloro-1H-pyrrolo[2,3-b]pyridin-5-yl)-1-(tetrahydro-2H-pyran-4-ylmethyl)-1,3-dihydro-2H-imidazo[4,5-b]pyridin-2-one]	< 50 nM	< 3000 nM
Cc1c(-c2cnc3[nH]c(=O)n(CC4CCOCC4)c3c2)cnc2[nH]ccc12 [Example 36, 6-(4-Methyl-1H-pyrrolo[2,3-b]pyridin-5-yl)-1-(tetrahydro-2H-pyran-4-ylmethyl)-1,3-dihydro-2H-imidazo[4,5-b]pyridin-2-one]	< 50 nM	< 3000 nM
Cc1c[nH]c2ncc(-c3cnc4[nH]c(=O)n(CC5CCOCC5)c4c3)cc12 [Example 37, 6-(3-Methyl-1H-pyrrolo[2,3-b]pyridin-5-yl)-1-(tetrahydro-2H-pyran-4ylmethyl)-1,3-dihydro-2H-imidazo[4,5-b]pyridin-2-one]	< 50 nM	< 3000 nM
O=c1[nH]c2ncc(-c3cnc4[nH]ccc4c3)cc2n1C[C@H]1COCCO1 [Example 40, 1-[(2S)-1,4-Dioxan-2-ylmethyl]-6-(1H-pyrrolo[2,3-b]pyridin-5-yl)-1,3-dihydro-2H-imidazo[4,5-b]pyridin-2-one]	< 50 nM	< 3000 nM
Cc1c[nH]c2ncc(-c3cnc4[nH]c(=O)n(C[C@H]5COCCO5)c4c3)cc12 [Example 43, 1-[(2S)-1,4-Dioxan-2-ylmethyl]-6-(3-methyl-1H-pyrrolo[2,3-b]pyridin-5-yl)-1,3-dihydro-imidazo[4,5-b]pyridin-2-one]	< 50 nM	< 3000 nM
Cc1nc2[nH]c(=O)n(C[C@H]3COCCO3)c2cc1-c1cnc2[nH]ccc2c1C [Example 45, 1-[(2S)-1,4-Dioxan-2-ylmethyl]-5-methyl-6-(4-methyl-1H-pyrrolo[2,3-b]pyridin-5-yl)-1,3-dihydro-imidazo[4,5-b]pyridin-2-one]	< 50 nM	< 3000 nM

More lines, main results first:

IC50 (human mTOR)	Structure (SMILES)	GI50 (WM-266-4 cells)
< 50 nM	CS(=O)(=O)N1CCC(Cn2c(=O)[nH]c3ncc(-c4cnc5[nH]ccc5c4)cc32)CC1 [Example 26, 1-{[1-(Methanesulfonyl)piperidin-4-yl]methyl}-6-(1H-pyrrolo[2,3-b]pyridin-5-yl)-1,3-dihydro-2H-imidazo[4,5-b]pyridin-2-one]	< 3000 nM
< 50 nM	O=c1[nH]c2ncc(-c3ccc4[nH]ccc4c3F)cc2n1CC1CCOCC1 [Example 27, 6-(4-Fluoro-1H-indol-5-yl)-1-(tetrahydro-2H-pyran-4-ylmethyl)-1,3-dihydro-2H-imidazo[4,5-b]pyridin-2-one]	< 3000 nM
< 50 nM	O=c1[nH]c2ncc(-c3cc4cc[nH]c4cc3F)cc2n1CC1CCOCC1 [Example 28, 6-(6-Fluoro-1H-indol-5-yl)-1-(tetrahydro-2H-pyran-4-ylmethyl)-1,3-dihydro-2H-imidazo[4,5-b]pyridin-2-one]	< 3000 nM
< 50 nM	O=c1[nH]c2ncc(-c3cc(F)c4[nH]ccc4c3)cc2n1CC1CCOCC1 [Example 29, 6-(7-Fluoro-1H-indol-5-yl)-1-(tetrahydro-2H-pyran-4-ylmethyl)-1,3-dihydro-2H-imidazo[4,5-b]pyridin-2-one]	< 3000 nM
< 50 nM	O=c1[nH]c2ncc(-c3cc(F)c4[nH]ccc4c3)cc2n1CCN1CCOCC1 [Example 33, 6-(7-Fluoro-1H-indol-5-yl)-1-(2-morpholin-4-ylethyl)-1,3-dihydro-2H-imidazo[4,5-b]pyridin-2-one]	< 3000 nM
< 50 nM	O=c1[nH]c2ncc(-c3cnc4[nH]ccc4c3Cl)cc2n1CC1CCOCC1 [Example 34, 6-(4-Chloro-1H-pyrrolo[2,3-b]pyridin-5-yl)-1-(tetrahydro-2H-pyran-4-ylmethyl)-1,3-dihydro-2H-imidazo[4,5-b]pyridin-2-one]	< 3000 nM
< 50 nM	O=c1[nH]c2ncc(-c3cnc4[nH]ccc4c3)cc2n1CC1COCCO1 (stereo not drawn) [Example 38, 1-(1,4-Dioxan-2-ylmethyl)-6-(1H-pyrrolo[2,3-b]pyridin-5-yl)-1,3-dihydro-2H-imidazo[4,5-b]pyridin-2-one]	< 3000 nM
< 50 nM	O=c1[nH]c2ncc(-c3cnc4[nH]ccc4c3)cc2n1C[C@@H]1COCCO1 [Example 39, 1-[(2R)-1,4-Dioxan-2-ylmethyl]-6-(1H-pyrrolo[2,3-b]pyridin-5-yl)-1,3-dihydro-2H-imidazo[4,5-b]pyridin-2-one]	< 3000 nM
< 50 nM	O=c1[nH]c2ncc(-c3cnc4[nH]cc(Cl)c4c3)cc2n1C[C@H]1COCCO1 [Example 41, 6-(3-Chloro-1H-pyrrolo[2,3-b]pyridin-5-yl)-1-[(2S)-1,4-dioxan-2-ylmethyl]-1,3-dihydro-imidazo[4,5-b]pyridin-2-one]	< 3000 nM
< 50 nM	Cc1c(-c2cnc3[nH]c(=O)n(C[C@H]4COCCO4)c3c2)cnc2[nH]ccc12 [Example 42, 1-[(2S)-1,4-Dioxan-2-ylmethyl]-6-(4-methyl-1H-pyrrolo[2,3-b]pyridin-5-yl)-1,3-dihydro-imidazo[4,5-b]pyridin-2-one]	< 3000 nM
< 50 nM	Cc1nc2[nH]c(=O)n(C[C@H]3COCCO3)c2cc1-c1cnc2[nH]ccc2c1 [Example 44, 1-[(2S)-1,4-Dioxan-2-ylmethyl]-5-methyl-6-(1H-pyrrolo[2,3-b]pyridin-5-yl)-1,3-dihydro-imidazo[4,5-b]pyridin-2-one]	< 3000 nM
< 50 nM	Cc1nc2[nH]c(=O)n(C[C@H]3COCCO3)c2cc1-c1cnc2[nH]cc(Cl)c2c1 [Example 46, 6-(3-Chloro-1H-pyrrolo[2,3-b]pyridin-5-yl)-1-[(2S)-1,4-dioxan-2-ylmethyl]-5-methyl-1,3-dihydro-imidazo[4,5-b]pyridin-2-one]	< 3000 nM
